The source made the active and inactive calls.
What was measured:
[1] = tested on: Vero; assay: cells; type: functional, cell-based; conditions: Chlorocebus sabaeus
[2] = tested on: Vero; assay: cells; type: functional; conditions: Chlorocebus sabaeus
[3] = target: T1, Aminopeptidase N (Plasmodium falciparum FcB1/Columbia, UniProt O96935); assay: malaria alanyl aminopeptidase activity blockers – biochemical, fluorogenic H-Leu-NHMec substrate, 1536-well (AID 1445); design: species or system Plasmodium falciparum 3D7, 3D7
T1 sequence (O96935 whole entry): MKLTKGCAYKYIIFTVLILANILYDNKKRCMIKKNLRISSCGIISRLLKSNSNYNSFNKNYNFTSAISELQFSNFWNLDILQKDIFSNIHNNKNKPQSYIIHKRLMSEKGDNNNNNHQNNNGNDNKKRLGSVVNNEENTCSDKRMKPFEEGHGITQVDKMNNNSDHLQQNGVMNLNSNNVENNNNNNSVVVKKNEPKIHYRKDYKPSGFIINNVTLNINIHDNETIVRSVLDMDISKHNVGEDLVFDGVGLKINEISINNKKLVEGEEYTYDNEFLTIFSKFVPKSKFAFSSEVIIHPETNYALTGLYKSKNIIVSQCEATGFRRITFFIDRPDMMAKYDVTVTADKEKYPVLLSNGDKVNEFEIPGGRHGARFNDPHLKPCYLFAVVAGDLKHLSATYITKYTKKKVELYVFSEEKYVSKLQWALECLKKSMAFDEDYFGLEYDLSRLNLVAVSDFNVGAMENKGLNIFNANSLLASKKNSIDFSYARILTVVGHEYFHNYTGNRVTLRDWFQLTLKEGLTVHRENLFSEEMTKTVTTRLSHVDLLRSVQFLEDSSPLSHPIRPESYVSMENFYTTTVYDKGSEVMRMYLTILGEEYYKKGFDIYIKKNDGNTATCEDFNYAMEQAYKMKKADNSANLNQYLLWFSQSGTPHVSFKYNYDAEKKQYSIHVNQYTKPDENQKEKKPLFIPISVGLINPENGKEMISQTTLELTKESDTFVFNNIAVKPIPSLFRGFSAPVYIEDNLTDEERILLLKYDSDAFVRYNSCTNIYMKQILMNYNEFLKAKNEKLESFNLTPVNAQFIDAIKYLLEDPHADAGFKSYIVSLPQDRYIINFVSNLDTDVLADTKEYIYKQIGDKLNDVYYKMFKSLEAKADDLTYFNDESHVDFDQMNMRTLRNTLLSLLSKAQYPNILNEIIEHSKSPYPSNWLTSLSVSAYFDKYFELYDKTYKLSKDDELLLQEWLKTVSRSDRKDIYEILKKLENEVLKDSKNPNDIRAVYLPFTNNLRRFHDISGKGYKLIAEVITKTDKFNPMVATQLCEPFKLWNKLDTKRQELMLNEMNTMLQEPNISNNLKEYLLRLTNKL

[4] = target: T2, DNA repair protein RAD52 homolog (Homo sapiens, UniProt P43351); type: functional, biochemical
T2 sequence (P43351 whole entry): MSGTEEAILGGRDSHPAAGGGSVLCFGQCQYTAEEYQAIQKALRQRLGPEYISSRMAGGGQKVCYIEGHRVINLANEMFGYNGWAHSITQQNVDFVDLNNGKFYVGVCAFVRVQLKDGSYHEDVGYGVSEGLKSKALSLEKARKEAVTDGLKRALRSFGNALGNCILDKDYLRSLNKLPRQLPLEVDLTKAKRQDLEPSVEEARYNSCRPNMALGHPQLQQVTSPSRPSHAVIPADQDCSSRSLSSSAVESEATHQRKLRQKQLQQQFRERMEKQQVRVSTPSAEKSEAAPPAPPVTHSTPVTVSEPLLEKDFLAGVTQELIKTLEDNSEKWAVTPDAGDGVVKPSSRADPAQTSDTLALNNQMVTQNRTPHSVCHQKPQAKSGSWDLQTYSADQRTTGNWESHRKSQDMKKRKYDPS

[5] = target: T3, Leucine aminopeptidase (Plasmodium falciparum 3D7, UniProt Q8IL11); assay: P. falciparum M17LAP inhibitors, primary screen, biochemical, fluorogenic H-Leu-NHMec substrate, 1536-well (AID 1619); type: functional
T3 sequence (Q8IL11 whole entry): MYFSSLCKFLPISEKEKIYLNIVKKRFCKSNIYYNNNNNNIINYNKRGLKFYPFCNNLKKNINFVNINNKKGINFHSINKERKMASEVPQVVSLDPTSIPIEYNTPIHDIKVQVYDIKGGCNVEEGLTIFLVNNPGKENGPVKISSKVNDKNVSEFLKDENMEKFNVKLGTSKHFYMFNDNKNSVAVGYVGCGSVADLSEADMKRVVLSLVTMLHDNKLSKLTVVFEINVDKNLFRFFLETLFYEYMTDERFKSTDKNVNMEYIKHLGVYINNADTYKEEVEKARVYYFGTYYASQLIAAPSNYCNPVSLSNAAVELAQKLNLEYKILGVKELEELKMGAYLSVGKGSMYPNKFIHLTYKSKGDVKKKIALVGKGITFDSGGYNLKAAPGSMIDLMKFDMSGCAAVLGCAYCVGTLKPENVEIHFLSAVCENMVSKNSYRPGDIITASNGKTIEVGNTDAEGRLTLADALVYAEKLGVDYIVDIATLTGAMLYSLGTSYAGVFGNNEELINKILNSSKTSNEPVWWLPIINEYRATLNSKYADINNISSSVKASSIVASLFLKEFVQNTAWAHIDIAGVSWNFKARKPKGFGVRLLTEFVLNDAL

[6] = target: Troponin, cardiac muscle (Homo sapiens, UniProt P19429+P45379+P63316); assay: Fluorescence-based biochemical high throughput dose response assay for activators of the calcium sensitivity of cardiac Regulated Thin Filaments (RTF). [Related pubchem assays (depositor defined):AID493008, AID493018, AID504382, AID504383]; type: protein-complex assay
[7] = target: Cytochrome P450 2C9 (Homo sapiens, UniProt P11712)
Sequence of Cytochrome P450 2C9 (P11712 whole entry): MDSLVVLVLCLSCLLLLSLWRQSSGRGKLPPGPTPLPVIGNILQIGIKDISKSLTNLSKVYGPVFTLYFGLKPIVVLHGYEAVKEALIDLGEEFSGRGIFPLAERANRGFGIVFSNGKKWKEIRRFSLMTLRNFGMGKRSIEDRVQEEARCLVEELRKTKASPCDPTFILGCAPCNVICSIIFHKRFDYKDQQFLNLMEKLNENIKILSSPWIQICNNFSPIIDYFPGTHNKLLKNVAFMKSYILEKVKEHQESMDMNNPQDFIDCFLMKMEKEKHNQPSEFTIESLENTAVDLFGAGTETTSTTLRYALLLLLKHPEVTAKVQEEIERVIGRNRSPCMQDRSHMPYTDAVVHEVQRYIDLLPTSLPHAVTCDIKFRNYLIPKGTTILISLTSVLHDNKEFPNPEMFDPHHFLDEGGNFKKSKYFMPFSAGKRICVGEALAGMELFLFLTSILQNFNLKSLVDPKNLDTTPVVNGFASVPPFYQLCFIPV

[8] = target: Cytochrome P450 2D6 (Homo sapiens, UniProt P10635);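 further: CYP2D6 member of a cytochrome P450 panel assay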
Sequence of Cytochrome P450 2D6 (P10635 whole entry): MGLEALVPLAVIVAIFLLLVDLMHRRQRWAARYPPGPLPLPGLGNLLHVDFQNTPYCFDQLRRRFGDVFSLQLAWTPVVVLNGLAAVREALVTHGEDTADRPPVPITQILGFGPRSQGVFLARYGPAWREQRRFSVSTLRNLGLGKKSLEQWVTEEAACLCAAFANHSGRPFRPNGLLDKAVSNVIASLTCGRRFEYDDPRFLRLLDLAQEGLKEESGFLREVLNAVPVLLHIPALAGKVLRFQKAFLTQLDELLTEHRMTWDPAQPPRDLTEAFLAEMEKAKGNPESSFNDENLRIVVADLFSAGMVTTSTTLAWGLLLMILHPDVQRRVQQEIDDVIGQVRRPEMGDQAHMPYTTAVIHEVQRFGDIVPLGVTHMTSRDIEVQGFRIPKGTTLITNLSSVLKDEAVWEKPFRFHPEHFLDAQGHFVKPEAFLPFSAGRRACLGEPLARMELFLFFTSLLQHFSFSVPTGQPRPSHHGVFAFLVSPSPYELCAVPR

[9] = target: Eukaryotic translation initiation factor 4E (Mus musculus, UniProt P63073); assay: blockers of eIF4G binding by eIF4E – biochemical, TR-FRET, dose response (AID 855); type: functional;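 further: potency for disrupting eIF4E binding to eIF4GI seen as loss of FRET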
Sequence of Eukaryotic translation initiation factor 4E (P63073 whole entry): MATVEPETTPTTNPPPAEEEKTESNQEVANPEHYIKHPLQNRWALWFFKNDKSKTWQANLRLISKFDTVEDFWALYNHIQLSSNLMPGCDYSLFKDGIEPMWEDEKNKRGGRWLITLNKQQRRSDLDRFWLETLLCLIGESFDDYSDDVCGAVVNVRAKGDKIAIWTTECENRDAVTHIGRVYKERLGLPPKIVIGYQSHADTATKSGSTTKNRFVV

[10] = fluconazole-exposed Candida albicans growth modulators – fluorescence, retest, confirmation (AID 2467); type: functional, cell-based
[11] = tested on: INS1; assay: INS-1E survival protection against cytokine death – cell-based, luminescence, retest, dose response (AID 449756); type: functional; conditions: Rattus norvegicus;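 further: cell death triggered by IL-1 beta plus TNF-alpha plus IFN-gamma mixture; protective hits raise ATP signal compared with cytokine alone wells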
[12] = target: Heat shock protein HSP 90-alpha (Homo sapiens, UniProt P07900); type: functional, organism-based
[13] = NIH-3T3 fibroblast cytotoxicity, dose response, cytotoxicity control, cell-based, fluorescence, Alamar Blue, secondary assay (AID 2327); type: functional;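 further: NIH-3T3 mouse fibroblasts cultured with fluconazole at 8 µg/mL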
[14] = target: DNA dC->dU-editing enzyme APOBEC-3G (Homo sapiens, UniProt Q9HC16); assay: Dose Response confirmation of small molecule APOBEC3G DNA Deaminase Inhibitors via a fluorescence-based single-stranded DNA deaminase assay. [Related pubchem assays (depositor defined):AID493012, AID493028]; type: functional
Sequence of DNA dC->dU-editing enzyme APOBEC-3G (Q9HC16 whole entry): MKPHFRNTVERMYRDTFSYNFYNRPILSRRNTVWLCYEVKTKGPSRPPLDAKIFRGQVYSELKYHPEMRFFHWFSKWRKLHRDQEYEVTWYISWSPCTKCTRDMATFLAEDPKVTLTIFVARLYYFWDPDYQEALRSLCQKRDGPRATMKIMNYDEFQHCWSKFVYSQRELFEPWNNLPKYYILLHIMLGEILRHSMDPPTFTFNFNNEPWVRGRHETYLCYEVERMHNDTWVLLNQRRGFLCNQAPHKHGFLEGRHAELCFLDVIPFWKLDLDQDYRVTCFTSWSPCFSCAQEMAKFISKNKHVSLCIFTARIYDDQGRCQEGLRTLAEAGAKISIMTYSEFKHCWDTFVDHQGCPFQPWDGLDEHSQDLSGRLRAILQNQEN

[15] = target: T4, Cytochrome P450 1A2 (Homo sapiens, UniProt P05177);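 further: PubChem cytochrome P450 panel assay, CYP1A2 panel member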
T4 sequence (P05177 whole entry): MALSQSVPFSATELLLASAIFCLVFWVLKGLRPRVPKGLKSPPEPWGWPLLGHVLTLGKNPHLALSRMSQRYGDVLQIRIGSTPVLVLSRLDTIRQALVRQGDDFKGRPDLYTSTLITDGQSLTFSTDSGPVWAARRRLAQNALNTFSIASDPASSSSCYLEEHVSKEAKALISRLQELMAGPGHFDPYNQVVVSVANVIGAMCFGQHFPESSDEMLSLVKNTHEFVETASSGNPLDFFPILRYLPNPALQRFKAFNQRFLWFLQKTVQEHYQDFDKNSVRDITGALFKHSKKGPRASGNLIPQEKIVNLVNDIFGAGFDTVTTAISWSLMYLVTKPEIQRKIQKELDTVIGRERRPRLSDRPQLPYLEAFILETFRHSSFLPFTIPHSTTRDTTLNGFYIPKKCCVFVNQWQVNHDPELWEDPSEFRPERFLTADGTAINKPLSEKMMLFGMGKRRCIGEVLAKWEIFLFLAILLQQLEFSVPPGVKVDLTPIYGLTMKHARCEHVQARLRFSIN

[16] = target: Large T antigen (Simian virus 40, UniProt P03070); type: functional, Betapolyomavirus macacae;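 further: Confirmatory-stage PubChem screen for compounds that inhibit SV40 T antigen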
Sequence of Large T antigen (P03070 whole entry): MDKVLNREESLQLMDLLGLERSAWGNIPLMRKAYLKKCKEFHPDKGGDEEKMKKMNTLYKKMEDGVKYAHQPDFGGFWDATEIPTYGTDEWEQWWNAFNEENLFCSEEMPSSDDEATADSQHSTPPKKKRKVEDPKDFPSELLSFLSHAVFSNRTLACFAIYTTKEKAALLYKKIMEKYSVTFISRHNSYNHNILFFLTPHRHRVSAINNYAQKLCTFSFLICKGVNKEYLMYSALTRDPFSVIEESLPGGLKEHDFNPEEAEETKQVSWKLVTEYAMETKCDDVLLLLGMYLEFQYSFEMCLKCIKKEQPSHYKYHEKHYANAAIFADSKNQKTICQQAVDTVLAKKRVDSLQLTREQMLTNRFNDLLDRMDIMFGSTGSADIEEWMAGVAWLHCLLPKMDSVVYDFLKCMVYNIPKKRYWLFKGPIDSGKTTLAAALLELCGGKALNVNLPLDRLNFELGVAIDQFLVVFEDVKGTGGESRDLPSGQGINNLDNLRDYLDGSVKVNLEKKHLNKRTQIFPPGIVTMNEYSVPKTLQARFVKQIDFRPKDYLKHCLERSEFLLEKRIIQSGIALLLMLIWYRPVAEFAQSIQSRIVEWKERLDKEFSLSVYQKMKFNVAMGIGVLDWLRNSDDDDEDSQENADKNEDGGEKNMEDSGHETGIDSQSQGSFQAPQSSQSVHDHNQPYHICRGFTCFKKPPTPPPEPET

[17] = target: T5, Protein skinhead-1 (Caenorhabditis elegans, UniProt P34707); type: functional
T5 sequence (P34707 whole entry): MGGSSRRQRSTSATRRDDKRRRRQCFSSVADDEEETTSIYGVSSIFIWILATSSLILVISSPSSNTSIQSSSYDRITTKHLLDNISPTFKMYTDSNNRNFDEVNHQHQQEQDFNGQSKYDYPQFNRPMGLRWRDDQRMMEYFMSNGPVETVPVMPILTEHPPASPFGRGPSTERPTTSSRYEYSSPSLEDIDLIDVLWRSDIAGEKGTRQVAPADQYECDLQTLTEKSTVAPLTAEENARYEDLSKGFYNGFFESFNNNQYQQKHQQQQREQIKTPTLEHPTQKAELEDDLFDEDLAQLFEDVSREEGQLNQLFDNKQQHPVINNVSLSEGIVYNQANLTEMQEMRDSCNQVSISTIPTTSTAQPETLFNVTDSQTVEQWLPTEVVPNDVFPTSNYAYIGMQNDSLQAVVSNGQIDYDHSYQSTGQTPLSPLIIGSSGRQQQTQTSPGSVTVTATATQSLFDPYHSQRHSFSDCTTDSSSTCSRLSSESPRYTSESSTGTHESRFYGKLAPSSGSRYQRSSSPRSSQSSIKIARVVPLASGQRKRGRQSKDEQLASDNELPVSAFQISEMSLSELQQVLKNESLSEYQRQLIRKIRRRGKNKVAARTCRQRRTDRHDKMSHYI

[18] = target: T6, Microphthalmia-associated transcription factor (Homo sapiens, UniProt O75030); assay: reducers of TRPM1 reporter luminescence, concentration series – cell-based, SK-MEL-5, cherry-picked, set 3, MITF inhibitor project, dose response (AID 493073); type: functional;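 further: SK-MEL-5 melanoma cells with luciferase driven by the MITF target TRPM1 promoter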
T6 sequence (O75030 whole entry): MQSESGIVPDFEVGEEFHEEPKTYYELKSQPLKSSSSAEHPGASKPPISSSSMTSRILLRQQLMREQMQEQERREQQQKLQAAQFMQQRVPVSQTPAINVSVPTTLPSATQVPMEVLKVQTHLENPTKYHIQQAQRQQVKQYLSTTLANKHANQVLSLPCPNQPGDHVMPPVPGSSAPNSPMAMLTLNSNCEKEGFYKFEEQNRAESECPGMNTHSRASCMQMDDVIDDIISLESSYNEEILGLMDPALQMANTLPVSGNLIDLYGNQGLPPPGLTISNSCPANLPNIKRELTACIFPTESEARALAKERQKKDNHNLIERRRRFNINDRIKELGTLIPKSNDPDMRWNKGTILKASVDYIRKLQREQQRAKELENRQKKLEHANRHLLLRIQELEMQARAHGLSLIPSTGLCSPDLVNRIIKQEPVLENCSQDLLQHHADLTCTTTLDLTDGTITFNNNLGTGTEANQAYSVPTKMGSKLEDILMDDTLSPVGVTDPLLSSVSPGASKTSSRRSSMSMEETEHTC

## COC(COC(N)=O)C1=C(N2CC2)C(=O)C(C)=C(N2CC2)C1=O (stereo not drawn) [CARBOQUONE]
[1]
  IC50: > 25 µM (active)
[2]
  CC50: 0.3 µM (active)

## CN=C(S)N=Nc1c(O)[nH]c2ccccc12
[3]
  IC50: 47.9 µM (active)

## C=CCn1c(=N)c(C(=O)NCCCOC)cc2c(=O)n3cccc(C)c3nc21
[3]
  IC50: 47.6 µM (active)

## CCc1nc(N=C(N)N)nc2ccccc12
[4]
  AC50: 20.2 µM (active)
[3]
  IC50: 48.5 µM (active)

## Cc1ccc(C(=O)Nc2nc(=O)n(C(=O)c3ccccc3Cl)s2)cc1
[3]
  IC50: 38.8 µM (active)
[5]
  IC50: 13.8 µM (active)

## S=C(Nc1cc(Cl)ccc1Oc1ccccc1)N1CCN(c2ccccn2)CC1
[6]
  EC50: > 71.4 µM (inactive)

## COc1ccccc1/C=C/C=C1\Oc2c(ccc(O)c2CN2CCN(CCO)CC2)C1=O
[6]
  EC50: 1.37 µM (active)

## CN(C)c1ccc(-c2cc(Nc3ccc(F)cc3)ncn2)cc1
[7]
  AC50: inconclusive
[8]
  AC50: 39.8 µM (inconclusive)

## O=C(Nc1cccc2ccccc12)c1ccc(Br)o1
[9]
  IC50: > 64 µM (inactive)

## CCCCOc1ccc(C(=O)NNC(=S)NC(=O)CC)cc1
[10]
  EC50: 0.621 µM (active)
[1]
  IC50: 5.78 µM (active)
[2]
  CC50: 13.2 µM (active)
[11]
  AC50: 3.17 µM (active)
[12]
  AC50: 4.33 µM (active)
[13]
  EC50: > 160 µM (inactive)

## O=C1NN=C(CSc2nnc(S)s2)CS1
[14]
  IC50: 9.78 µM (active)

## COc1cccc(Cn2c(=O)c(-c3cccs3)nc3cnc(N4CCN(C)CC4)nc32)c1
[7]
  AC50: inconclusive
[15]
  AC50: 5.01 µM (inconclusive)

## Sc1nnc(-c2ccccn2)n1/N=C/c1ccccc1
[14]
  IC50: 9.26 µM (active)

## Cc1ccc(C2(C)NC(=O)N(CC(=O)Nc3nc(-c4ccccn4)cs3)C2=O)cc1 (stereo not drawn)
[14]
  IC50: 25.6 µM (active)
[16]
  IC50: > 100 µM (active)

## CCOC(=O)c1ccc2c(c1)nc(SCC(=O)c1cc3ccccc3o1)n2CC
[17]
  IC50: > 100 µM (inactive)
[9]
  IC50: > 64 µM (inactive)

## Cc1cc(OCc2nnn[nH]2)c2c3c(c(=O)oc2c1)CCCC3
[3]
  IC50: 68.9 µM (active)

## COc1ccccc1NC(=O)c1ccc(NC(=O)c2cc3c(s2)CCC3)cc1
[9]
  IC50: > 64 µM (inactive)

## Cc1ccc(S(=O)(=O)CC(O)CN2CCCC2=O)cc1 (stereo not drawn)
[7]
  AC50: inconclusive

## CC(NC(=O)C12CC3CC(CC(C3)C1)C2)C(=O)NN=Cc1ccc([N+](=O)[O-])o1 (stereo not drawn)
[18]
  AC50: 7.79 µM (active)

## C/C(NCC1CCCO1)=C1/C(=O)NC(=O)N(c2ccccc2)C1=O (stereo not drawn)
[9]
  IC50: > 64 µM (inactive)

## COc1ccc(OC)c(N2C(=O)/C(=C/NCCN3CCNCC3)C(=O)NC2=S)c1
[6]
  EC50: > 71.5 µM (inactive)
